Measured values: US7572770B2, “Use of an interleukin 1 receptor antagonist and/or pyrrolidinedithiocarbamate for the treatment or prophylaxis of type 2 diabetes” (University of Zurich, priority 2002, dated 2009)

How the values were obtained:
IL-1β = IL-1β release and expression in human islets exposed to leptin; format: cell-based
Protocol: Islet isolation and cell culture. Islets were isolated from pancreases of ten organ donors at the Department of Surgery, University of Geneva Medical Center, as described (32-34). The islet purity was >95%, as judged by dithizone staining (if this degree of purity was not primarily achieved by routine isolation, islets were handpicked). […] For long-term in vitro studies, the islets were cultured on extracellular matrix-coated plates derived from bovine corneal endothelial cells (Novamed Ltd., Jerusalem, Israel), allowing the cells to attach to the dishes and spread, preserving their functional integrity (7;35). Islets were cultured in CMRL 1066 medium containing 100 U/ml penicillin, 100 μg/ml streptomycin and 10% fetal calf serum (Invitrogen Corporation, Paisley, U.K.), hereafter referred to as culture medium. Two days after plating, when most islets were attached and began to flatten, the medium was changed to culture medium containing 5.5, 11.1 or 33.3 mM glucose. In some experiments, islets were additionally cultured with 5, 10 or 500 nM rh leptin (PeproTech, London, UK), 500 ng/ml rh IL-1Ra (R&D Systems Inc., Minneapolis, Minn.) or 50 nM small interfering RNA (siRNA) as described below.
Detection of IL-1Ra and IL-1β expressing cells. Pancreases from routine necropsies were immersion-fixed in formalin, followed by paraffin embedding. In parallel, isolated human were cultured in a suspension for 48 hours and exposed to 10 nM leptin or 33.3 mM glucose, islets were fixed in Bouin solution for 15 min, resuspended in 40 μl of 2% melted agarose in PBS (40° C.), followed by rapid centrifugation and paraffin embedding. Sections were deparaffinized, rehydrated and then incubated in methanol for 4 min. Human islets cultured on extracellular matrix for 4 days were washed in PBS, fixed in 4% paraformaldehyde (30 min, room temperature) followed by permeabilization with 0.5% triton X-100 (4 min, room temperature). Pancreas and islet sections and cultured cells were double-labeled for IL-1Ra or IL-1β and insulin, CD68, glucagon or somatostatin by 1 h of exposure to 10% bovine serum albumin followed by incubation (1 h, 37° C.) with biotinylated goat anti-IL-1Ra or mouse anti-IL-1β antibodies (R&D Systems Inc.). […]
RNA extraction and RT-PCR. […] PCR conditions were: denaturation for 30 seconds at 94° C., annealing for 30 seconds at 60° C., and elongation for 30 seconds at 72° C., followed for real time PCR by quantification for 5 seconds at 82° C.; repetition for 40 cycles. […] For quantitative analysis, we used the LightCycler quantitative PCR system (Roche) and performed quantitative PCR with a commercial kit (LightCycler-DNA Master SYBR Green I; Roche). […]

human islets = test: Insulin release and content of human islets; format: cell-based
Protocol: Islet isolation and culture. Islets were isolated from pancreases of eleven organ donors at the Department of Surgery, University of Geneva Medical Center, as described (32-34). The islet purity was >95%, as judged by dithizone staining (if this degree of purity was not primarily achieved by routine isolation, islets were handpicked). […] For long-term in vitro studies, the islets were cultured on extracellular matrix-coated plates derived from bovine corneal endothelial cells (Novamed Ltd., Jerusalem, Israel), allowing the cells to attach to the dishes and spread, preserving their functional integrity (7;35). Islets were cultured in CMRL 1066 medium containing 100 U/ml penicillin, 100 μg/ml streptomycin and 10% fetal calf serum (Gibco, Gaithersburg, Md.), hereinafter referred to as culture medium. Two days after plating, when most islets were attached and began to flatten, the medium was changed to culture medium containing 5.5, 11.1 or 33.3 mM glucose. In some experiments, islets were additionally cultured with 2 ng/ml recombinant human IL-1β, 1000 U/ml recombinant human IFNγ (ReproTech EC Ltd, London, UK), 500 ng/ml IL-1β receptor antagonist (IL-1Ra) (R&D Systems Inc., Minneapolis, Minn.), 1 ng/ml membrane bound Fas-ligand (FasL) (36) (upstate biotechnology, Lake Placid, N.Y.) or with 100 μM pyrrolidinedithiocarbamate (PDTC; Sigma; 2 h per 2 d of culture).
Insulin release and content. To determine acute insulin release in response to glucose stimulation, islets were washed in RPMI 1640 medium with 10% FCS and containing 3.3 mM glucose and pre-incubated for 1 h in the same medium. The medium was then discarded and replaced with fresh medium containing 3.3 mM glucose for 1 h for basal secretion, followed by an additional 1 h incubation in medium containing 16.7 mM glucose. Incubates were collected and frozen for insulin assays. […] Insulin was determined by a human insulin RIA kit (CIS bio international, Gif-Sur-Yvette, France).

Substance	IL-1β expression in β-cells (triple immunostaining) (IL-1β; 10 nM leptin, 48 hours)	IL-1β RNA expression of islets (quantitative RT-PCR) (IL-1β; leptin)	IL-1β release into culture medium (IL-1β; leptin, 15 hours)	IL-1β release into culture medium (IL-1β; leptin, 48 hours)	acute glucose-stimulated insulin release, co-incubation (human islets; 33.3 mM glucose or IL-1β for 4 days plus IL-1Ra or PDTC)	insulin content of islets (human islets; high glucose with IL-1Ra, 4 days)
leptin: rh leptin (PeproTech); protein encoded by the ob gene	induced IL-1β expression in TUNEL-positive β-cells	not significantly changed	increased IL-1β release	remained increased		
Interleukin 1 receptor antagonist [IL-1Ra]					partially restored such glucose stimulation	remained unaffected
